Experimental data as given in patent publication US20100197765A1, “METHOD FOR PROMOTING THE EXPRESSION OF P53, AND P53 EXPRESSION PROMOTER FOR USE IN THE METHOD” (THE UNIVERSITY OF TOKUSHIMA, priority 2007, published 2010).

Experiments:
Assay type in all cases: cell-based, human
vegf mRNA = vegf mRNA expression by Northern blotting in HepG2 cells expressing vegf siRNA; conditions: HepG2, 18 hours after vector transfection, vs untransfected and control siRNA cells
Method: Total RNAs were extracted according to a guanidine thiocyanate method. Labeled cDNAs were produced using the following antisense primers, a klenow fragment (New England BioLabs, Inc., Inc.), and [α^−32P]dCTP, with the following cDNAs being templates. Thus obtained labeled cDNAs were used as probes for the Northern blotting.
The vegf siRNA #1 vectors, the vegf siRNA #2 vectors, and the control siRNA vectors were transfected into HepG2 cells (wild-type p53). These cells were cultured for 18 hours, and the expression level of vegf mRNA was analyzed by the Northern blotting. Also, with respect to the HepG2 cells not transfected with the vectors, the analysis was performed in the same manner. At the time of analysis, gapdh mRNA in each type of the cells was monitored as a loading control (hereinafter, the same applies). The cells were cultured using DMEM medium containing 10% fetal bovine serum and 100 μg/ml (100 units/ml) of streptomycin under the condition of 37° C. and 5% CO2 (hereinafter, the same applies).

parent cells HCT116 = experiment: apoptosis (TUNEL) in parental HCT116 cells with vegf siRNA and 5-FU; conditions: parent cells HCT116, siRNA expressed and 80 mmol/L of 5-FU, 60 hours
Method: Apoptotic cells were evaluated by a TUNEL staining method using in situ Cell Death Detection kit (Roche Diagnostic). […] The counting was performed with respect to at least 300 cells in one measurement.
Various types of cells were treated with 5-FU, which is an anticancer agent inducing apoptosis in a p53-dependent manner, and the sensitivity to apoptosis was analyzed. The vegf siRNA#1 vectors expressing siRNA#1, the vegf siRNA #2 vectors expressing siRNA #2, and the control siRNA vectors described above respectively were transfected into HCT 116 (parent cells) and p53-deleted cells HCT116. Then, the cells after 18 hours from the transfection was treated for 60 hours in the presence of […] of 5-FU (+) or in the absence of 5-FU (−). The proportion (%) of apoptosis positive cells in the thus-treated cells was calculated based on “Apoptotic evaluation 2” above (means±SD, n=4).

bax mRNA and noxa mRNA = experiment: bax and noxa mRNA by quantitative RT-PCR in siRNA-transfected HCT116 cells; conditions: HCT116, 5-FU 80 μmol/L, 24 hours, vs control
Method: Whether or not the increase in the 5-FU-induced expression of p53 mRNA caused by the knockdown of vegf IresRNA by vegf siRNA induces expression of mRNA of a bax gene or a noxa gene, which are both p53 target genes, was examined. Cells obtained by transfecting the same control siRNA vectors, vegf siRNA #1 vectors, or vegf siRNA #2 vectors as in the above into parent cells HCT116 were treated for 24 hours in the presence of 80 μmol/L of 5-FU (+) or in the absence of 5-FU (−). Thereafter, expressions of bax mRNA and noxa mRNA were analyzed by quantitative RT-PCR (means±SD, n=4).

[1] = system: noxa mRNA, puma mRNA, and p21 mRNA; experiment: expression of mRNAs induced in p53 pathways in HepG2 cells (Northern); conditions: HepG2, 5-FU 30 μmol/L, 16 hours
Method: In the same manner, HepG2 cells transfected with each type of the vectors were treated for 16 hours in the presence of 5-FU (30 μmol/L) (+) or the absence of 5-FU (−). With respect to the treated cells, expression of noxa mRNA, puma mRNA, and p21 mRNA induced in p53 pathways was analyzed by the Northern blotting. […] In FIG. 1D, the first row from the top indicates expression of noxa mRNA, the second row indicates expression of puma mRNA, the third row indicates expression of p21 mRNA, and the fourth row indicates expression of gapdh mRNA. Definitions of the lanes in FIG. 1D are the same as those of FIG. 1C.

p53 = experiment: endogenous p53 mRNA (quantitative RT-PCR) and p53 protein (Western) in siRNA-transfected HCT116 cells
Method: From the results obtained in the above (1) and (2), it is interpreted that vegf IresRNA exerts an adverse influence in the p53 cancer suppression pathway. Thus, the expression level of endogenous p53 in cells transfected with vegf siRNA was examined. Specifically, the same transfected parent cells […] as in the above were treated for 8 hours in the presence of 80 lμmol/L of 5-FU (+) or in the absence of 5-FU (−), after which expression of p53 mRNA was analyzed by quantitative RT-PCR (means±SD, n=4). Also, the transfected cells were treated in the presence of 80 μmol/L of 5-FU (+) for a predetermined time (0, 8, 16, 24 hours), after which p53 protein was detected by the Western immunoblotting described above.

HCT116 cells = experiment: apoptosis of siRNA-expressing HCT116 cells treated with low-concentration anticancer agents, with or without rVEGF; conditions: for enhancement of apoptosis when cells were treated with rVEGF protein: HCT116, 1 ng/ml rVEGF plus anticancer agents; for apoptosis by treatments with anticancer agents of low concentrations: HCT116, etoposide 20 μmol/L, doxorubicin 170 nmol/L, 5-FU 40 μmol/L, 60 hours, vs untreated
Method: The recombinant vectors that express vegf siRNA#1 and #2 and the vectors that express control siRNA were transfected into HCT116 cells (parent cells, wild-type p53). As a control cell, an HCT116 cell not transfected with a recombinant vector that expresses siRNA was used. These four types of cells were treated in the presence or absence of various anticancer agents having the final concentrations as described below for 60 hours. As the anticancer agent, etoposide (20 μmol/L), doxorubicin (170 nmol/L), and 5-FU (40 μmol/L) were used. With respect to the treated cells, apoptosis (%) was quantified in the same manner as in Example A1.
UTR RNA and function of VEGF protein. With the aim of clarifying an effect of blocking the function of vegf 5′ UTR RNA, recombinant VEGF protein (R&D systems, hereinafter referred to as “rVEGF”) was added to a culture supernatant of cells transfected with vegf siRNA in order to add VEGF protein that is decreased due to siRNA. […] Therefore, in Example A9, 1 ng/ml of rVEGF protein was added to the four types of cells. […] Then, these transfection cells were treated with anticancer agents in the same manner as described above.

[2] = HCT116, absence of 5-FU, vs control
[3] = HCT116, further treated with 5-FU 80 μmol/L, 8 hours
[4] = HCT116, further treated with 5-FU 80 μmol/L, up to 24 hours

Substance	expression amount of vegf mRNA (vegf mRNA)	proportion of apoptosis (parent cells HCT116)	induction of the expressions of bax mRNA and noxa mRNA by 5-FU (bax mRNA and noxa mRNA)	expression induction of noxa mRNA, puma mRNA, and p21 mRNA [1]	amount of the expressed p53 mRNA (p53; [2])	amount of the expressed p53 mRNA (p53; [3])	amount of the expressed p53 protein (p53; [4])	amount of the expressed p53 protein (p53; HCT116, vs control)	enhancement of apoptosis when cells were treated with rVEGF protein (HCT116 cells)	apoptosis by treatments with anticancer agents of low concentrations (HCT116 cells)
siRNA #1: siRNA against vegf mRNA, SEQ ID NO 3/4, antisense complementary to bases 1062-1082 in SEQ ID NO. 1; expressed from pcDNA6.2-GW/EmGFP-miR vector (sense GCAUUGGACUUGCCUUGCUNN; antisense AGCAAGGCAAGGCUCCAAUGCNN)	decreased markedly	increased markedly	promoted markedly	enhanced markedly	increased	increased markedly	increased markedly	increased	affected very little	enhanced markedly
siRNA #2: siRNA against vegf mRNA, SEQ ID NO 5/6, antisense complementary to bases 1067-1087 in SEQ ID NO. 1; vector-expressed (sense GGAGCCUUGUUGCUGCUCUNN; antisense AGAGCAGCAAGGCAAGGCUCCNN)	decreased markedly	increased markedly	promoted markedly	enhanced markedly	increased	increased markedly	increased markedly	increased	affected very little	enhanced markedly
